Among the data in paper PMC5162400, “Discovery of novel inhibitors disrupting HIF-1α/von Hippel–Lindau interaction through shape-based screening and cascade docking” (PeerJ, 2016) are Kd and IC50 values, retold here.

Experiment [1] deals with T1, pVHL (Homo sapiens, UniProt P40337). Set-up: method as in earlier work. The settings on record: native ligands of pVHL crystal complexes, labelled by PDB ID, ref Buckley et al., 2012b, Van-Molle et al., 2012a, Dias et al., 2014, Galdeano et al., read-out: Kd of native ligand; cited from earlier work.
Experiment [2] has as its target T1, pVHL. The experiment in a line: Fluorescence polarization binding assay (FAM-DEALA-Hyp-YIPD displacement from V1-213CB). The settings on record: inhibition of HIF-1α/pVHL interaction, mean ± SEM. (Fluorescence polarisation rises when a labelled molecule tumbles more slowly, as on binding a larger partner.)
Procedure: The fluorescence intensities parallel (Intparallel) and perpendicular (Intperpedicular) to the plane of excitation were measured in black 96-well NBS assay plates (Greiner Microlon) at room temperature. The plate was then shaken for 1 min and centrifuged for 1 min. […] The inhibition percentage was determined by normalizing to maximum and minimum polarization and graphed against the log [VL].

A word on the Kd: it is a measure of binding affinity in units of concentration. In general, IC50 refers to the midpoint of a concentration-inhibition curve. Low values mean greater potency in that assay, high ones weaker potency in that assay.

T1 sequence (P40337 whole entry): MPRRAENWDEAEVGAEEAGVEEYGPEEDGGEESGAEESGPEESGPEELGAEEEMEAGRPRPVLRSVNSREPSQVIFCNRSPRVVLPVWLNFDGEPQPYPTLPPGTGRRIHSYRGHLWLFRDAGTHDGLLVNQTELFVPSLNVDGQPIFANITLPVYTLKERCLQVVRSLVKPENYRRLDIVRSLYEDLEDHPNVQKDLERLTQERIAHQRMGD
T1 sequence (Q15369 whole entry partner): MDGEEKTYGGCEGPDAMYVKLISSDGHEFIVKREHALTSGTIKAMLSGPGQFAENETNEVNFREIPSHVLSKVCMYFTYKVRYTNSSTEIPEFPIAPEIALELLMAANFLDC
T1 sequence (Q15370 whole entry partner): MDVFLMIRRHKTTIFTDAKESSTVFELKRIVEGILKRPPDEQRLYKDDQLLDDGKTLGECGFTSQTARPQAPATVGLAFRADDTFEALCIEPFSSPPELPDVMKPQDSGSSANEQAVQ

As for `Cc1ncsc1-c1ccc(CNC(=O)C2CC(O)CN2C(=O)c2cccc(N)c2C)cc1` (stereo not drawn) [Compound 4B9K], the equilibrium dissociation constant (Kd) in experiment [1] is 700 nM.

As to `c1ccc(-c2ccc(-c3nc4ccc(-c5ccccc5)cc4o3)cc2)cc1` [Compound 6], in experiment [2], the half-maximal inhibitory concentration (IC50) came to 102 ± 6.13 µM.

With `CC1=NN(c2ccccc2)C(=O)/C1=N\Nc1ccc(N2CCOCC2)cc1` [Compound 9], the IC50 in experiment [2] is 2 ± 0.14 µM.
